In PMC6308302, “Identification of Pharmacokinetic Markers for Guanxin Danshen Drop Pills in Rats by Combination of Pharmacokinetics, Systems Pharmacology, and Pharmacodynamic Assays” (Frontiers in Pharmacology, 2018):
Entries after “also recorded” stand apart in the source; their conditions may differ. Marks after values point to notes of the source that are not given here.

Assays:
Caco-2 cell monolayers = conditions: ref Lu et al., 2008, Liu et al., 2009, Hu et al., 2014, Bowles et al., 2017, cited from earlier work
[1] = Aqueous solubility test (vortexing in water); type: physicochemical; conditions: water at 25 °C
Protocol: Aqueous solubility (S) test of the 17 ingredients was performed by vortexing 10 mg of each ingredient in […] water in a test tube at ambient temperature and 1 atm. After vortexing for 5 min, if the solution is clear, the tested object will be considered as soluble in water. In silico assessment of the physicochemical properties governing permeation and intestinal absorption was carried out for the 17 ingredients studied. Theory aqueous solubility (S) was calculated with ALOGPS 2.1 online software via the Virtual Computational Chemistry Laboratory service (Chemoinformatics Group, Neuherberg, Germany) (VCCLAB^1). The octanol–water partition coefficient (cLogP), the total hydrogen bond count (donors and acceptors), and topological polar surface area (TPSA) were determined using the Molinspiration Property Calculator (Molinspiration Cheminformatics, Bratislava, Slovak Republic^2). Lipinski’s rule of 5 was used to predict the permeability of the compound ([Lipinski et al., 2001]).

[2] = Multiple component PK study in rat plasma after p.o. GDDP (HPLC-MS); conditions: for AUC(0-inf) / AUC(0-t) / MRT inf / MRT last / Tmax / Cmax / half-life: Sprague-Dawley, rat, plasma, po
[3] = Stability tests in rat plasma (QC samples, HPLC-MS); conditions: n=5
Description: Accuracy and precision were expressed by relative error (RE) and coefficient of variance (RSD), respectively.

[4] = system: isoprenaline-induced MI in mice; assay: In vivo anti-MI study: isoprenaline-induced myocardial injury (ECG, H&E histology)
[5] = Caco-2 cell monolayers, from literature
[6] = 24h in auto-sampler vials, spiked 2 ng/mL
[7] = 24h in auto-sampler vials, spiked 400 ng/mL
[8] = 24h in auto-sampler vials, spiked 1600 ng/mL
[9] = Placing plasma for 6h at 4°C, spiked 2 ng/mL
[10] = Placing plasma for 6h at 4°C, spiked 400 ng/mL
[11] = Placing plasma for 6h at 4°C, spiked 1600 ng/mL
[12] = three freeze-thaw cycles, rat plasma, spiked 2 ng/mL
[13] = three freeze-thaw cycles, rat plasma, spiked 400 ng/mL

SMILES: Cc1cccc2c3c(ccc12)C1=C(C(=O)C3=O)[C@@H](C)CO1 [DHTS I, dihydrotanshinone I]
- Papp(apical→basolateral) (Caco-2 cell monolayers; [5]): 1.49^d ×10^-6 cm/s
- Papp(basolateral→apical) (Caco-2 cell monolayers; [5]): 8.28^d ×10^-6 cm/s
- apparent permeability in Caco-2 cell monolayers (Caco-2 cell monolayers; previous results): ≥ 10^-6 cm/s
- solubility in water (in words) [1]: insoluble
- determination in rat plasma at the planned successive PK time points ([2]; GDDP 0.8 g/kg p.o., 5, 10, 15, 30, 45, 60, and 120 min, LOQ 1.0–1.4 ng/mL): could be determined
- detection in rat plasma ([2]; GDDP 0.8 g/kg p.o., at 5, 10, 15, 30, 45, or 60 min, LOD 0.5–0.7 ng/mL): could be detected
- AUC(0-inf) ([2]; 0.4 g/kg): 14.2 ± 17.2 ng·h/mL
- AUC(0-t) ([2]; 0.4 g/kg): 12.1 ± 14.4 ng·h/mL
- MRT inf ([2]; 0.4 g/kg): 6.93 ± 7.38 h
- MRT last ([2]; 0.4 g/kg): 5.17 ± 5.21 h
- Tmax ([2]; 0.4 g/kg): 1.38 ± 0.88 h
- Cmax ([2]; 0.4 g/kg, Cmax, rat plasma, GDDP 0.4 g/kg p.o. (Low dose group), n=3): 1.9 ± 1.57 ng/mL
- half-life ([2]; 0.4 g/kg, t1/2 β, rat plasma, GDDP 0.4 g/kg p.o. (Low dose group), n=3): 2.68 ± 2.38 h
- AUC(0-inf) ([2]; 0.8 g/kg): 16.1 ± 2.84 ng·h/mL
- AUC(0-t) ([2]; 0.8 g/kg): 14.7 ± 2.51 ng·h/mL
- MRT inf ([2]; 0.8 g/kg): 7.26 ± 3.47 h
- MRT last ([2]; 0.8 g/kg): 5.05 ± 2.03 h
- Tmax ([2]; 0.8 g/kg): 0.83 ± 0.14 h
- Cmax ([2]; 0.8 g/kg, Cmax (high / low plasma drug concentrations), rats, GDDP 0.4 and 0.8 g/kg p.o., classification): < 10 ng/mL
- Cmax ([2]; 0.8 g/kg, Cmax, rat plasma, GDDP 0.8 g/kg p.o. (High dose group), n=3): 3.1 ± 0.49 ng/mL
- half-life ([2]; 0.8 g/kg, t1/2 β (fast / slow elimination type), rats, GDDP 0.4 and 0.8 g/kg p.o., classification): > 2.6 h
- half-life ([2]; 0.8 g/kg, t1/2 β, rat plasma, GDDP 0.8 g/kg p.o. (High dose group), n=3): 5.57 ± 2.98 h
- Cltot ([2]; rat plasma, GDDP 0.4 g/kg p.o. (Low dose group), n=3): 101 ± 122 mL/min/kg
- Cltot ([2]; rat plasma, GDDP 0.8 g/kg p.o. (High dose group), n=3): 47.7 ± 7.67 mL/min/kg
- Stability: Measured [3, 6]: 2.21 ± 0.23 ng/mL
- Stability: RE [3, 6]: 10.31%
- Stability: Measured [3, 7]: 464.67 ± 43.51 ng/mL
- Stability: RE [3, 7]: 16.17%
- Stability: Measured [3, 8]: 1644.43 ± 109.72 ng/mL
- Stability: RE [3, 8]: 2.78%
- Stability: Measured [3, 9]: 2.23 ± 0.06 ng/mL
- Stability: RE [3, 9]: 11.41%
- Stability: Measured [3, 10]: 456.85 ± 38.51 ng/mL
- Stability: RE [3, 10]: 14.21%
- Stability: Measured [3, 11]: 1735.14 ± 230.11 ng/mL
- Stability: RE [3, 11]: 8.45%
- Stability: Measured [3, 12]: 2.015 ± 0.18 ng/mL
- Stability: RE [3, 12]: 2.73%
- Stability: Measured [3, 13]: 437.97 ± 37.90 ng/mL
- Stability: RE [3, 13]: 9.49%
- Stability: RE ([3]; three freeze-thaw cycles, rat plasma, spiked 1600 ng/mL): 0.88%
- Histopathology of heart tissue (H&E) ([4]; 40 mg/kg p.o. for 7 days, isoprenaline-induced MI, 40 mg/kg): remarkably severe histological damage with extensive myocardial lysis and architecture wrecking; also recorded: extremely severe histological damage with extensive myocardial lysis and architecture wrecking
- ECG (lead II) findings on the fifth day of the trial ([4]; 40 mg/kg p.o., isoprenaline 5 mg/kg on days 4 and 5): T waves reversed or decreased
